Test results from patent US12083304B2, “Kits for topical, isotonic compositions” (GLYCIOME, LLC, priority 2019, dated 2024).

Tested on: Arion lusitanicus
Assay: Slug Mucosal Irritation (SMI) assay
Format: in vivo
Experimental: The SMI assay uses slugs (Arion lusitanicus) as the test organism. The body wall of slugs consists of a mucosal surface comprising mucus secreting cells covering a sub epithelial connective tissue. Slugs that are placed on an irritant substance will actively produce mucus as a protective mechanism from noxious agents. Additionally, tissue damage of the slug's surface results in the release of proteins and enzymes. The protein concentration in the collected samples is determined with a protein quantitation kit.
The Slug Mucosal Irritation (SMI) assay was developed to predict the mucosal irritation potency of pharmaceutical formulations and ingredients. Briefly, the assay utilized the terrestrial slug Arion lusitanicus, whose body wall is a mucosal surface composed of different layers. The outer single-layered columnar epithelium contains cells with cilia, cells with microvilli, and mucus-secreting cells that cover the subepithelial connective tissue. […]
The method for testing the irritation potency of the formulations was evaluated by placing the slugs on 100 mg of the sample for 30 minutes daily for 3 successive days, and the amount of mucus produced was measured. […] The total mucus production (MP) percentage was calculated as a percent of the slug's body weight.

Nonoxynol-9
Total MP (%) (100 mg, 30 minutes daily, 3 successive days, percent of slug body weight): 8.2 ± 1.2% | MIP (mucosal irritation potency class): high
